# According to PMC8305652, “Copper(II) Complexes Containing Natural Flavonoid Pomiferin Show Considerable In Vitro Cytotoxicity and Anti-inflammatory Effects” (International Journal of Molecular Sciences, 2021):
# Columns and labels:
# [1] = tested on: colorectal adenocarcinoma (Caco-2); test: in vitro cytotoxicity, MTT assay; type: cell-based, human; details: mean ± SD, at least three independent experiments
# THP-1 cells = test: intracellular production of reactive oxygen species, DCFH2-DA; type: cell-based, human; details: THP-1, 200 nM, 23.5 h; pyocyanin 100 μM as radical-forming control
# Description: THP-1 cells were used for the determination of the potential of tested compounds to initiate the intracellular ROS production, as was described previously with some minor modifications. Cells in serum-free RPMI 1640 medium without phenol red were seeded into black 96-well plates (5 × 10^4 cells/100 µL/well). After 2 h of incubation, the cells were treated with copper(II) complexes 1–5 at a concentration of 200 nM, and pyocyanin at a final concentration of 100 μM was added into control group to trigger production of reactive oxygen species (ROS), respectively. After the incubation at 37 °C for either 1.5 h or 23.5 h, dichlorofluorescin diacetate (DCFH2-DA) (5 μg/mL) was added and cells were kept under the same conditions hereafter. Thirty minutes later, fluorometric measurement of the fluorescent product DCF was conducted using a Tecan Infinite F200 microplate reader (Tecan, Männedorf, Switzerland) with λ(ex./em.) = 485/520 nm.
# pUC19 plasmid DNA = test: nuclease-like activity, plasmid DNA cleavage; type: biochemical
# [2] = tested on: THP-1 human monocytic leukemia cell line; test: relative cell viability, WST-1; type: cell-based; details: serum-free medium, 24 h, six independent experiments
# Description: The THP-1 human monocytic leukemia cell line was purchased from the European Collection of Cell Cultures (ECACC, Salisbury, UK). Cells were cultured in an RPMI 1640 medium containing stabilized 2 mM L-glutamine (Biosera, Nuaille, France) supplemented with the mixture of antibiotics [100 U/mL penicillin and […] (Biosera, Nuaille, France)], and 10% foetal bovine serum (FBS) (HyClone, Marlborough, MA, USA). The cells were kept in an incubator at 37 °C in an atmosphere of air containing 5% CO2 and 100% humidity.
# The relative cell viability of floating monocytes THP-1 were determined after 24 h incubation in a serum-free medium with compounds 1–5 dissolved in N,N-dimethylformamide (DMF) at increasing concentrations (20–0.125 µM) by the cell proliferation reagent WST-1 (Roche, Basel, Switzerland) according to the manufacturer’s manual, as we described previously. The IC50 values were calculated from resultant viability curves by four-parameter logistic (4PL) analysis.
# osteosarcoma (HOS) = test: in vitro cytotoxicity, MTT assay; type: cell-based, human; details: mean ± SD, at least three independent experiments
# [3] = tested on: NF-κB/AP-1 in THP-1-XBlue-MD2-CD14 cells; test: LPS-stimulated NF-κB/AP-1 activity, SEAP reporter; type: cell-based, human; details: complexes applied at 200 nM and 50 nM, 1 h pre-treatment, read 24 h after LPS
# Description: The activity of transcription factors NF-κB/AP-1 was evaluated using the THP-1-XBlue^TM-MD2-CD14 cell line [obtained from Invivogen (San Diego, CA, USA)], expressing an NF-κB/AP-1-inducible secreted embryonic alkaline phosphatase (SEAP) reporter gene, as was described previously. The complexes 1–5 were applied to the cells at the concentrations of 200 nM and 50 nM, pomiferin (at 200 nM), and a reference drug prednisone at 1 μM, respectively. Lipopolysaccharide (LPS) from E. coli 0111:B4 (Sigma-Aldrich) dissolved in PBS was used to trigger an inflammation-like reaction. The activity of the SEAP was determined by Quanti-Blue^TM reagent (Invivogen, San Diego, CA, USA) according to the manufacturer’s instructions 24 h after lipopolysaccharide stimulation. The activity of NF-κB/AP-1 was determined spectrophotometrically using the FLUOstar Omega microplate reader (BMG Labtech, Ortenberg, Germany) at 655 nm and compared with that of the vehicle.
# [4] = tested on: primary culture of human hepatocytes (Hep); test: toxicity against primary culture of human hepatocytes; type: cell-based; details: tested range 0.1–100 μM
# [5] = tested on: cisplatin-resistant ovarian carcinoma (A2780R); test: in vitro cytotoxicity, MTT assay; type: cell-based, human; details: mean ± SD, at least three independent experiments
# Description: (§1) The testing was performed on the following human cancer cell lines: breast adenocarcinoma (MCF-7), osteosarcoma (HOS), lung adenocarcinoma (A549), prostate adenocarcinoma (PC-3), ovarian carcinoma (A2780), cisplatin-resistant ovarian carcinoma (A2780R) and colorectal adenocarcinoma (Caco-2) obtained from ATCC collection of cell lines and cultivated according to producer’s instructions.
# [6] = tested on: prostate adenocarcinoma (PC-3); test: in vitro cytotoxicity, MTT assay; type: cell-based, human; details: mean ± SD, at least three independent experiments
# Description: as §1
# [7] = tested on: ovarian carcinoma (A2780); test: in vitro cytotoxicity, MTT assay; type: cell-based, human; details: mean ± SD, at least three independent experiments
# Description: as §1
# [8] = tested on: breast adenocarcinoma (MCF-7); test: in vitro cytotoxicity, MTT assay; type: cell-based, human; details: mean ± SD, at least three independent experiments
# Description: as §1
# [9] = tested on: lung adenocarcinoma (A549); test: in vitro cytotoxicity, MTT assay; type: cell-based, human; details: mean ± SD, at least three independent experiments
# Description: as §1
# [10] = tested on: caspase 3 (Casp-3) in THP-1 cells; test: Western blotting of apoptosis-related proteins; type: cell-based, human; details: THP-1, complexes 4 µM, 24 h, Western blot; for proteolytically activated Casp-3 (verified by cleaved PARP-1): cisplatin 10 µM
# Description: In addition to the above-mentioned methods, the Western blotting method was used to shed light on the mechanisms associated with caspase 3 activation in the THP-1 cells. Two and a half milliliters of floating THP-1 monocytes resuspended in a serum-free RPMI 1640 medium were seeded into 6-well plates at the concentration of 10^6 cells/mL. Two hours later, complexes 3 and 5 were added at the concentration level of 4 µM. After 24 h incubation, the cells were collected by centrifugation (3000 g/5 min/4 °C), washed by cold PBS and resuspended in an ice-cold lysis buffer (50 mM Tris-HCl pH 7.5, 1 mM EGTA, 1 mM EDTA, 1 mM sodium orthovanadate, 50 mM sodium fluoride, 5 mM sodium pyrophosphate, 270 mM sucrose) with Roche cOmplete protease inhibitors (Roche Diagnostics, Basel, Switzerland). The cell lysates were centrifuged at 3000 g/5 min/4 °C and supernatants were mixed with a 5x Laemmli buffer [containing 250 mM Tris-HCl pH 6.8, 10% (w/v) SDS, 30% (v/v) glycerol, 5% (v/v) β-mercaptoethanol, 0.04% (w/v) bromphenol blue] and incubated at 70 °C for 5 min. […] The membranes were incubated at 4 °C for 16 h with a primary anti-cleaved caspase 3 (p17) antibody at the dilution 1:1000 (Cell Signaling, Danvers, MA, USA; products No. 9664), and an Apoptosis WB Cocktail (Abcam, Cambridge, UK; product No. ab136812) at the dilution recommended by the provider to detect β-actin, cleaved poly-(ADP-ribose) polymerase (PARP) and pro-caspase 3. After washing in a TBST buffer, the secondary anti-rabbit IgG antibody (Sigma-Aldrich, product No. A0545) was diluted 1:2500 and applied to the membranes, which were then incubated for 1 h at the laboratory temperature (~22 °C). The amount of bound secondary antibody was determined using an ECL reagent (Bio-Rad, Hercules, CA, USA). Chemiluminescence was detected using a Syngene PXi4 chemiluminescence imaging system (Cambridge, UK).
# [11] = tested on: Panc-1 pancreas carcinoma cells; parameters: method as in PMID 27936296; details: 72 h incubation; cited from earlier work
# [12] = tested on: Ea.Hy 926 endothelial hybrid cells; parameters: method as in PMID 27936296; details: read-out: IC50 Ea.Hy 926 healthy endothelial hybrid cells; cited from earlier work
# [13] = tested on: KB-V1/Vbl cervix carcinoma cells; parameters: method as in PMID 27936296; details: 72 h incubation; cited from earlier work
# DLD-1 colon carcinoma = tested on: DLD-1 colon carcinoma; parameters: method as in PMID 27936296; details: 72 h incubation; cited from earlier work
# [14] = tested on: MCF-7/Topo breast adenocarcinoma cells; parameters: method as in PMID 27936296; details: 72 h incubation; cited from earlier work
# 518A2 melanoma cells = tested on: 518A2 melanoma cells; parameters: method as in PMID 23973682; details: 72 h incubation; cited from earlier work
# U-87 MG glioblastoma = tested on: U-87 MG glioblastoma; parameters: method as in PMID 27936296; details: 72 h incubation; cited from earlier work
# A2780 cell line = tested on: A2780 cell line; parameters: method as in PMID 32578983; details: 24 h incubation; cited from earlier work
# [15] = tested on: 518A2, Panc-1, MCF-7/Topo, KB-V1/Vbl, DLD-1, U-87 MG cancer cell lines; parameters: method as in PMID 27936296; details: range over cell lines; read-out: IC50 values on the mentioned cancer cell lines; cited from earlier work
# A2780 cells [16] = test: cell cycle analysis by flow cytometry; type: cell-based, human; details: A2780, 15 µM, 24 h; untreated control 21.4 ± 0.8%
# Description: Human ovarian cancer cell line A2780 (Sigma, Darmstadt, Germany) were used for this study. Cells were cultivated at 37 °C under a 5% CO2 atmosphere in an RPMI 1640 medium (Sigma Aldrich, Darmstadt, Germany) supplemented with (the final concentrations in medium): L-glutamine (2 mM), fetal bovine serum (FBS, 10%) and PenStrep (5 U penicillin, 50 µg streptomycin/mL).
# After 24 h, the cells were washed once with PBS (0.1 M, pH 7.4) and cell cycle analysis was performed according to the protocol of BD Cycletest^TM Plus DNA kit (Becton Dickinson, Franklin Lakes, NJ, USA). Measurements were performed using BD FACSVerse flow cytometer (Becton Dickinson, Franklin Lakes, NJ, USA) in 3 independent experiments, each done in duplicate, while at least 5 × 10^3 events were recorded for each sample.
# A2780 cells [17] = test: Annexin V/propidium iodide cell death assay, flow cytometry; type: cell-based, human; details: A2780, 15 µM, 24 h; mean of three experiments
# Description: Both methods were performed according to the manufacturers’ protocols with 1 modification in the caspase induction assay, which was the use of the CellEvent^TM Caspase-3/7 Green Detection Reagent only for detection of Caspase-3/7 activation. […] After 24 h, the cells were washed once with PBS (0.1 M, pH 7.4), detached with trypsin (0.25% in ethylenediaminetetraacetic acid (EDTA), Sigma-Aldrich), resuspended in 500 µL of the culture medium and divided into 2 separate tubes, the first for apoptosis assay and the second one for caspase activation analysis. After staining with appropriate dyes, samples were analyzed on a BD FACSVerse flow cytometer (Becton Dickinson, Franklin Lakes, NJ, USA) in 3 separate experiments, while at least 10^4 events were recorded for each sample prepared in duplicate.
Structure (SMILES),IC50 [1] [µM],"ROS production, long term (THP-1 cells)",IC50 [2] [µM],IC50 (osteosarcoma (HOS)) [µM],inhibition of LPS-stimulated NF-κB/AP-1 activation [3],IC50 [4] [µM],IC50 [5] [µM],IC50 [6] [µM],IC50 [7] [µM],IC50 [8] [µM],IC50 [9] [µM],proteolytically activated Casp-3 (verified by cleaved PARP-1) [10],IC50 [12] [µM],IC50 (A2780 cell line) [µM],also measured
"CC(C)=CCc1c2c(c3occ(-c4ccc(O)c(O)c4)c(=O)c3c1[O-])C=CC(C)(C)O2.CO.CO.O=[N+]([O-])[O-].[Cu+2].c1ccc(-c2ccccn2)nc1 [Complex 1, (3-(3,4-dihydroxyphenyl)-8,8-dimethyl-6-(3-methylbut-2-en-1-yl)-4H,8H-benzo[1,2-b:3,4-b′]dipyran-4-one-5-olato-κ^2O4:O5)(2,2′-bipyridine–κ^2N:N)copper(II) nitrate methanol disolvate]",13.7 ± 7.4,elevated the ROS levels similarly as pyocyanin,4 ± 1.1,21.5 ± 1.4,able to inhibit,> 100,5.6 ± 0.3,22.1 ± 1.9,12.1 ± 1.5,23.8 ± 0.2,20.8 ± 1.5,–,–,–,"plasmid DNA nicked to OC-form (pUC19 plasmid DNA; 10 µM, water-containing medium (10% DMF), 37 °C, 1 h): ca. 30%; DNA cleavage in the presence of ROS scavengers (KI, NaN3, DMSO) (pUC19 plasmid DNA; 0.66 mM H2O2, scavengers equimolar to complex): decreased by DMSO"
"CC(C)=CCc1c2c(c3occ(-c4ccc(O)c(O)c4)c(=O)c3c1[O-])C=CC(C)(C)O2.CO.CO.O=[N+]([O-])[O-].[Cu+2].c1cnc2c(c1)ccc1cccnc12 [Complex 3, (3-(3,4-dihydroxyphenyl)-8,8-dimethyl-6-(3-methylbut-2-en-1-yl)-4H,8H-benzo[1,2-b:3,4-b′]dipyran-4-one-5-olato-κ^2O4:O5)(1,10-phenanthroline–κ^2N:N)copper(II) nitrate methanol disolvate]",4.2 ± 1.9,highest pro-oxidant potential of all the complexes,> 10,3.5 ± 0.1,no influence on the activity,> 100,2.9 ± 1.2,13 ± 1.4,5.8 ± 2.2,5.9 ± 0.6,3.5 ± 0.2,detected,–,–,levels of pro-caspase 3 (pro-Casp-3) [10]: dramatically decreased
"O=c1c(-c2ccc(O)cc2)coc2cc(O)cc([O-])c12.O=c1c(-c2ccc(O)cc2)coc2cc(O)cc([O-])c12.[Cu+2] [[Cu(L)2], bis[3-(4-hydroxyphenyl)-7-hydroxy-4H-benzopyran-4-one-5-olato-κO^2] copper(II)]",–,–,–,–,–,–,–,–,–,–,–,–,20.1 ± 0.7,–,IC50 [11]: 16.9 ± 0.8 µM; IC50 [13]: 8 ± 0.2 µM; IC50 (DLD-1 colon carcinoma): 21.2 ± 1.8 µM; IC50 [14]: 15 ± 1.5 µM; IC50 (518A2 melanoma cells): 10.9 ± 1.4 µM; IC50 (U-87 MG glioblastoma): 30.2 ± 5 µM
"c1ccc(-c2ccccn2)nc1 [bipy, 2,2′-bipyridine]",–,–,–,–,–,–,–,–,–,–,–,–,–,> 100,–
"N.N.[Cl][Pt][Cl] [cisplatin, reference compound]",–,–,–,30 ± 5.9,–,> 80,> 80,> 80,26.3 ± 2.1,30.8 ± 1.8,> 80,detected,17.3 ± 1.9,–,IC50 [15]: 4 to 32.6 µM; cells in the S phase of the cell cycle (A2780 cells [16]): 51.4 ± 2.2%; Annexin V +/PI + cells (late apoptotic/secondary necrotic) (A2780 cells [17]): 23.7 ± 2.0%; Annexin V +/PI − cells (early apoptotic) (A2780 cells [17]): 41.5 ± 0.8%
"c1cnc2c(c1)ccc1cccnc12 [phen, 1,10-phenanthroline]",–,–,–,–,–,–,–,–,–,–,–,–,–,> 100,–
